Experimental data: ChEMBL document CHEMBL1151549, “Design and synthesis of new taxol-containing aminophosphates as protaxols” (Bioorg Med Chem Lett, 1997)
Values after ≈ are worked out from the molar mass of the structure shown.

The molecules below were run on HL-60 (assay: Tested in vitro for the anticancer activity against HL-60 leukemia cells). Conditions: Homo sapiens.
Assay type: functional, cell-based

`CC(=O)O[C@H]1C(=O)[C@@]2(C)[C@H]([C@H](OC(=O)c3ccccc3)[C@]3(O)C[C@H](OC(=O)[C@H](OP(=O)(O)OCCCN)[C@@H](NC(=O)c4ccccc4)c4ccccc4)C(C)=C1C3(C)C)[C@]1(OC(C)=O)CO[C@@H]1C[C@@H]2O` was tested. Which IC50 did it give?
Its IC50 is 4 µg/mL (≈ 4.04 µM).

Which IC50 does the source give for `CC(=O)O[C@H]1C(=O)[C@@]2(C)[C@H]([C@H](OC(=O)c3ccccc3)[C@]3(O)C[C@H](OC(=O)[C@H](OP(=O)(O)OCCCCN)[C@@H](NC(=O)c4ccccc4)c4ccccc4)C(C)=C1C3(C)C)[C@]1(OC(C)=O)CO[C@@H]1C[C@@H]2O` here?
The IC50 was 0.3 µg/mL (≈ 0.299 µM).

Which IC50 does the source give for `CC(=O)O[C@H]1C(=O)[C@@]2(C)[C@H]([C@H](OC(=O)c3ccccc3)[C@]3(O)C[C@H](OC(=O)[C@H](OP(=O)(O)OCCN)[C@@H](NC(=O)c4ccccc4)c4ccccc4)C(C)=C1C3(C)C)[C@]1(OC(C)=O)CO[C@@H]1C[C@@H]2O` here?
Its IC50 is 0.8 µg/mL (≈ 0.819 µM).

How did the IC50 turn out when `CC(=O)O[C@H]1C(=O)[C@@]2(C)[C@H]([C@H](OC(=O)c3ccccc3)[C@]3(O)C[C@H](OC(=O)[C@H](O)[C@@H](NC(=O)c4ccccc4)c4ccccc4)C(C)=C1C3(C)C)[C@]1(OC(C)=O)CO[C@@H]1C[C@@H]2O` [PACLITAXEL] was run?
Its IC50 is 0.001 µg/mL (≈ 0.00117 µM).
